# Values quoted from earlier work, collected in patent publication US12133844B2, “Methods of treating epithelioid cell tumors” (Abraxis BioScience, LLC, priority 2015, dated 2024).
# Like-named read-outs stand apart in the source and are kept apart here.
# Legend:
# [1] = target: T1, mTORC1 (Homo sapiens, UniProt P42345); parameters: endogenous in cells; host or cells: HUVEC
# [2] = in vivo
# [3] = tested on: ABCB1/ABCG2
# [4] = target: HSA (Homo sapiens, UniProt P02768)
# [5] = tested on: human plasma proteins
# [6] = target: T1, mTORC1; parameters: endogenous in cells; details: HEK293 cells, 0.2 μM-5 μM
# [7] = target: T1, mTORC1; parameters: endogenous in cells; host or cells: HUVEC; details: HUVEC cells, 10 nM-1 μM
# HSA, sequence (P02768 25-609): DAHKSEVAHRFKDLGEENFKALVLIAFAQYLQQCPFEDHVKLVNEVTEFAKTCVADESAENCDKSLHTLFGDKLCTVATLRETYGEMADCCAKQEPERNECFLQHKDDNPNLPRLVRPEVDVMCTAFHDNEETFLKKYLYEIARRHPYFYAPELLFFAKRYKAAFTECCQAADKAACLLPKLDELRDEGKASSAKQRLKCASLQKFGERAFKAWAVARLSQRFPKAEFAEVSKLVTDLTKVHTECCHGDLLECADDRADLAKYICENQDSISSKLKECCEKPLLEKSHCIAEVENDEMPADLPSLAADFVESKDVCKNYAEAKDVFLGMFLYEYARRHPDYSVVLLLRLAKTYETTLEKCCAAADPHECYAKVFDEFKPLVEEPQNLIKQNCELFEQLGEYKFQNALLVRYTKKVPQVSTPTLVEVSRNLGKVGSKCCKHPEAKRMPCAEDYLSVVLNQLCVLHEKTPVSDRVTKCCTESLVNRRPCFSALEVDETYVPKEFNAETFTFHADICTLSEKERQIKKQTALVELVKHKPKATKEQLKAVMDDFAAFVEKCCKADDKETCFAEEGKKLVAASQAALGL
compound,measurement,setting,value
COc1ccc(-c2ccc3c(N4CCOCC4)nc(N4C[C@@H](C)O[C@@H](C)C4)nc3n2)cc1CO [KU-0063794],inhibition of phosphorylation of mTORC1 at Ser2448,[1],dose-dependent and time-dependent
COc1ccc(COc2cc3oc(=O)c4cc(C(C)O)ccc4c3cc2OC)cc1 (stereo not shown) [Palomid 529],brain penetration,[2],good brain penetration
same,affinity for ABCB1/ABCG2,[3],lacks affinity
"CO[C@H]1C[C@@H]2CC[C@@H](C)[C@@](O)(O2)C(=O)C(=O)N2CCCC[C@H]2C(=O)O[C@H]([C@H](C)C[C@@H]2CC[C@@H](O)[C@H](OC)C2)CC(=O)[C@H](C)/C=C(\C)[C@@H](O)[C@@H](OC)C(=O)[C@H](C)C[C@H](C)/C=C/C=C/C=C/1C [Sirolimus, sirolimus]",binding to HSA,[4],shown to bind HSA
CC(=O)O[C@@]12CO[C@@H]1C[C@H](O)[C@@]1(C)C(=O)[C@H](O)C3=C(C)[C@@H](OC(=O)[C@H](O)[C@@H](NC(=O)OC(C)(C)C)c4ccccc4)C[C@@](O)([C@@H](OC(=O)c4ccccc4)[C@H]21)C3(C)C [docetaxel],binding to human plasma proteins,[5],shown to bind
WYE-354,inhibition of mTORC1,[6],inhibits mTORC1
same,inhibition of mTORC1,[7],inhibits mTORC1
